Results published in ChEMBL document CHEMBL5346928, “Discovery of orally effective and safe GPR40 agonists by incorporating a chiral, rigid and polar sulfoxide into β-position to the carboxylic acid” (Eur J Med Chem, 2023).

Key:
[1] = target: GPR40-Galpha16 (Homo sapiens, UniProt O14842+P30679); test: Agonist activity at human GPR40/Galpha-16 expressed in HEK293 cells by Fluo4-AM dye based intracellular calcium flux assay; type: cell-based
[2] = target: Free fatty acid receptor 1 (Homo sapiens, UniProt O14842); test: Agonist activity at human GPR40 expressed in HEK293 cells by Fluo4-AM dye based intracellular calcium flux assay; type: functional, cell-based
Sequence of Free fatty acid receptor 1 (O14842 whole entry): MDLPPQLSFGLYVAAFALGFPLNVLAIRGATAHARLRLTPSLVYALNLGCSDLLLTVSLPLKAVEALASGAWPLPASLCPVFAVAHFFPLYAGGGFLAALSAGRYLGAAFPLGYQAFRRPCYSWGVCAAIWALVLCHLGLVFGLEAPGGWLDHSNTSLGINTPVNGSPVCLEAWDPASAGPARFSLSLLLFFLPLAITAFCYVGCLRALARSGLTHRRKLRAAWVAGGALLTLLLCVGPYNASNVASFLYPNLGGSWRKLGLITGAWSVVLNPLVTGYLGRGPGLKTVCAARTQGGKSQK

[3] = Inhibition of bile acid efflux in Sprague-Dawley rat hepatocytes assessed as decrease in biliary excretion index incubated for 15 mins followed by compound washout for 15 mins and subsequent addition of compounds with d8-TCA measured after 15 mins by LC-MS/MS analysis; type: toxicity, cell-based, Hepatocyte; conditions: 0.5 h, at 5 to 25 µM, dose 5-25 µM, time 30 min
[4] = Metabolic stability in human liver microsomes assessed as intrinsic clearance; type: ADME, Microsome
[5] = Half life in Sprague-Dawley rat at 1 mg/kg, iv by LC-MS analysis; type: ADME, organism-based; conditions: in vivo
[6] = Tmax in Sprague-Dawley rat at 10 mg/kg, po by LC-MS analysis; type: ADME, organism-based; conditions: in vivo
[7] = test system: Hepatocyte; test: Disruption of plasma membrane integrity in rat primary hepatocytes assessed as LDH release in cytosol at 100 uM incubated for 24 hrs by absorbance based assay; type: toxicity, cell-based
[8] = Metabolic stability in rat liver microsomes assessed as intrinsic clearance; type: ADME, Microsome; conditions: read-out: CLH
[9] = test system: Hepatocyte; test: Cytotoxicity against human primary hepatocytes assessed as cell viability at 1 to 100 uM incubated for 24 hrs by WST-1 assay; type: toxicity, cell-based; conditions: dose 1-100 µM
[10] = Oral bioavailability in Sprague-Dawley rat […] by LC-MS analysis; type: ADME, organism-based; conditions: in vivo
[11] = Cmax in Sprague-Dawley rat at 10 mg/kg, po by LC-MS analysis; type: ADME, organism-based; set-up: dose 10 mg/kg, route po; conditions: in vivo
[12] = MRTlast in Sprague-Dawley rat at 10 mg/kg, po by LC-MS analysis; type: ADME, organism-based; conditions: in vivo
[13] = Metabolic stability in rat liver microsomes assessed as half life; type: ADME, Microsome
[14] = AUC (0 to t) in Sprague-Dawley rat at 10 mg/kg, po by LC-MS analysis; type: ADME, organism-based; set-up: dose 10 mg/kg, route po; conditions: in vivo
[15] = Cmax in Sprague-Dawley rat at 1 mg/kg, iv by LC-MS analysis; type: ADME, organism-based; set-up: dose 1 mg/kg, route iv; conditions: in vivo
[16] = test system: Hepatocyte; test: Disruption of plasma membrane integrity in human primary hepatocytes assessed as LDH release in cytosol upto 100 uM incubated for 24 hrs by absorbance based assay; type: toxicity, cell-based
[17] = AUC (0 to t) in Sprague-Dawley rat at 1 mg/kg, iv by LC-MS analysis; type: ADME, organism-based; set-up: dose 1 mg/kg, route iv; conditions: in vivo
[18] = MRTlast in Sprague-Dawley rat at 1 mg/kg, iv by LC-MS analysis; type: ADME, organism-based; conditions: in vivo
[19] = Half life in Sprague-Dawley rat at 10 mg/kg, po by LC-MS analysis; type: ADME, organism-based; conditions: in vivo
[20] = Metabolic stability in human liver microsomes assessed as half life; type: ADME, Microsome

Sequence of GPR40-Galpha16 (O14842 whole entry): as above
Sequence of GPR40-Galpha16 (P30679 whole entry): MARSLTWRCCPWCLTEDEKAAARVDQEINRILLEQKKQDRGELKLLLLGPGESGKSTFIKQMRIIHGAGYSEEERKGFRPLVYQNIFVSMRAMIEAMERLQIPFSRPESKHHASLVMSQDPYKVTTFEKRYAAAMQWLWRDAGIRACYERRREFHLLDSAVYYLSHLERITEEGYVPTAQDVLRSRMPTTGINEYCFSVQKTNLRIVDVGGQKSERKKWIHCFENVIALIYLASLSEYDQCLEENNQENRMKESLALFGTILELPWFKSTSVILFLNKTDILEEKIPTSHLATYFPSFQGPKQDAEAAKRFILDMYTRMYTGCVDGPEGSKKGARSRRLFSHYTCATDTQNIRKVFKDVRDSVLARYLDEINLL

CC#C[C@H](CC(=O)O)c1ccc(OCc2ccc(-c3cccc(OC)c3)cc2)cc1
EC50 [1]: 93.3 nM

Cc1cccc(C)c1-c1cccc(COc2ccc(S(=O)(=O)CC(=O)O)cc2)c1
EC50 [2]: 252 nM
inhibition (INH) [3]: Dose-Dependent Effect

Cc1cccc(C)c1-c1cccc(COc2ccc([S@@+]([O-])CC(=O)O)cc2)c1
CLH [4]: 8.8 µL/min/mg
half-life [5]: 1.9 h
Tmax [6]: 2 h
Activity [7]: Toxic
microsomal CLint [8]: 6.3 µL/min/mg
Activity [9]: Non-Toxic
bioavailability [10]: 87.5%
Cmax [11]: 1230 ng/mL
MRT last [12]: 4.5 h
half-life [13]: 3.82 h
AUC(0-t) [14]: 7620 ng·h/mL
Cmax [15]: 858 ng/mL
Activity [16]: Non-Toxic
AUC(0-t) [17]: 871 ng·h/mL
MRT last [18]: 1.7 h
half-life [19]: 3.2 h
t1/2 [20]: 6.3 min

Cc1cccc(C)c1-c1ccc(COc2ccc(S(=O)(=O)CC(=O)O)cc2)cc1
EC50 [2]: 716 nM

Cc1ccccc1C#Cc1ccc(S(=O)(=O)CC(=O)O)cc1
EC50 [2]: 4880 nM

COc1ccc(F)c(-c2cccc(COc3ccc(S(=O)(=O)CC(=O)O)cc3)c2)c1
EC50 [2]: 2900 nM

Cc1cc(OCCCN2CCOCC2)cc(C)c1-c1cccc(COc2ccc([S+]([O-])CC(=O)O)cc2)c1 (racemic)
EC50 [2]: 66.7 nM

Cc1cnccc1-c1cccc(COc2ccc([S+]([O-])CC(=O)O)cc2)c1 (racemic)
EC50 [2]: 2000 nM

Cc1noc(C)c1-c1cccc(COc2ccc([S+]([O-])CC(=O)O)cc2)c1 (racemic)
EC50 [2]: 5380 nM

Cc1cncc(C)c1-c1cccc(COc2ccc([S+]([O-])CC(=O)O)cc2)c1 (racemic)
EC50 [2]: 3100 nM

O=C(O)C[S+]([O-])c1ccc(OCc2cccc(-c3ccncc3Cl)c2)cc1 (racemic)
EC50 [2]: 1000 nM

Cc1cc(OCC2(C)COC2)cc(C)c1-c1cccc(COc2ccc([S+]([O-])CC(=O)O)cc2)c1 (racemic)
EC50 [2]: 62.8 nM

Cc1cccc(C)c1-c1ccc(COc2ccc([S+]([O-])CC(=O)O)cc2)cc1 (racemic)
EC50 [2]: 454 nM

CCCCC/C=C\C/C=C\CCCCCCCC(=O)O [LINOLEIC ACID]
EC50 [2]: 6040 nM
EC50 [1]: 10100 nM
